Reference: patent publication US20260207621A1 (Vividion Therapeutics, Inc., priority 2022, published 2026)

system: Nrf2; assay: Nrf2 antagonism assay: ARE luciferase reporter in KYSE-70 cells; assay type: cell-based; details: Homo sapiens, KYSE-70, KYSE-70 cells, positive Imax corresponds to Nrf2 antagonism, read-out: KYSE70 Cellular ARE Luciferase Imax (%)
Text: NRF2 binds to a promoter region, antioxidant response element (ARE), to initiate expression of multiple genes. ARE luciferase reporter assays are used to test whether a ligand can activate or repress the expression of target genes using luciferase as a reporter gene.
KYSE-70 is an esophageal squamous cell carcinoma cell line with a Nrf2 mutation at amino acid position W24C. This mutation lowers the affinity between the E3 ligase that includes KEAP1 and Nrf2, resulting in a state in which the synthesis rate of new Nrf2 is faster than the E3's degradation rate of Nrf2, resulting in a “Nrf2 high” state. In KYSE-70 cells, genes are inserted directly after the ARE that trigger the expression of luciferase. Without a NRF2 antagonist in this modified KYSE70 cell line which has an inherently “NRF2 high state”, luciferase is expressed, and a signal is observed.
Nrf2 antagonists bind at C151 of KEAP1 and stabilize the E3 which results in an increased degradation rate of Nrf2. Increased degradation of Nrf2 results in less expression of luciferase, and therefore a less intense signal.
An IC50 is generated from the dose-response curve and an Imax. A positive Imax corresponds to Nrf2 antagonism. Imax >90% correlates with in vivo tumor grown inhibition. Compounds with Imax >50% were included in this description.

Row | Compound | Emax [%]
1 | C=CC(=O)N1CCOCCC1c1cc(Cl)cc(-c2ncnc(N)n2)c1 (racemic) [Compound 152, 1-(5-(3-(4-amino-1,3,5-triazin-2-yl)-5-chlorophenyl)-1,4-oxazepan-4-yl)prop-2-en-1-one] | 78
2 | C=CC(=O)N1[C@H](C)COC[C@H]1c1cc(Cl)cc(-c2ncccn2)c1 (single isomer, unassigned) [Compound 20] | 67
3 | C=CC(=O)N1CCN(S(C)(=O)=O)C[C@H]1c1cc(Cl)cc(-c2nnn(C)n2)c1 (single isomer, unassigned) [Compound 21] | 54
4 | C=CC(=O)N1CCN(C(C)=O)C[C@H]1c1cc(Cl)cc(-c2nnn(C)n2)c1 (single isomer, unassigned) [Compound 22] | 64
5 | C=CC(=O)N1CCOCC1c1cc(Cl)nc(-c2nnn(C)n2)c1 (single isomer, unassigned) [Compound 23, 1-(3-(2-chloro-6-(2-methyl-2H-tetrazol-5-yl)pyridin-4-yl)morpholino)prop-2-en-1-one] | 55
6 | C=CC(=O)N1[C@H](C)COC[C@H]1c1cc(Cl)cc(-c2ccn(C)c(=O)c2)c1 (single isomer, unassigned) [Compound 24] | 73
7 | C=CC(=O)N1CCOCC1c1cc(Cl)nc(-c2ccn(C)c(=O)c2)c1 (single isomer, unassigned) [Compound 25, 4-(4-acryloylmorpholin-3-yl)-6-chloro-1′-methyl-[2,4′-bipyridin]-2′(1′H)-one] | 86
8 | C=CC(=O)N1CCOCC1c1cc(Cl)nc(-c2ccnnc2)c1 (single isomer, unassigned) [Compound 30, 1-(3-(2-chloro-6-(pyridazin-4-yl)pyridin-4-yl)morpholino)prop-2-en-1-one] | 72
9 | C=CC(=O)N1CCOC[C@H]1c1cc(Cl)cc(-c2ncnc(N)n2)c1 (single isomer, unassigned) [Compound 55] | 93
10 | C=CC(=O)N1CCOCC1c1cc(Cl)cc(-c2cnnc(OC)c2)c1 (single isomer, unassigned) [Compound 56, 1-(3-(3-chloro-5-(6-methoxypyridazin-4-yl)phenyl)morpholino)prop-2-en-1-one] | 74
11 | C=CC(=O)N1CCOCC1c1cc(Cl)cc(-c2ccn3cc(C)nc3c2)c1 (single isomer, unassigned) [Compound 57, 1-(3-(3-chloro-5-(2-methylimidazo[1,2-a]pyridin-7-yl)phenyl)morpholino)prop-2-en-1-one] | 84
12 | C=CC(=O)N1CCOCC1c1cc(Cl)cc(-c2cncc(C)n2)c1 (single isomer, unassigned) [Compound 59, 1-(3-(3-chloro-5-(6-methylpyrazin-2-yl)phenyl)morpholino)prop-2-en-1-one] | 81
13 | C=CC(=O)N1CCOCC1c1cc(Cl)cc(-c2ccnc(C(N)=O)c2)c1 (single isomer, unassigned) [Compound 75, 4-(3-(4-acryloylmorpholin-3-y1)-5-chlorophenyl)picolinamide] | 92
14 | C=CC(=O)N1CC(C)(C)OCC1c1cc(Cl)nc(-c2ccnc(N)n2)c1 (single isomer, unassigned) [Compound 99, 1-(5-(2-(2-aminopyrimidin-4-yl)-6-chloropyridin-4-y1)-2,2-dimethylmorpholino)prop-2-en-1-one] | 82
15 | C=CC(=O)N1[C@H](C)COC[C@H]1c1cc(Cl)cc(-c2ccc(F)c(C(N)=O)c2)c1 (single isomer, unassigned) [Compound 108] | 70
16 | C=CC(=O)N1[C@H](C)COC[C@H]1c1cc(Cl)cc(-c2ccnc(C)n2)c1 (single isomer, unassigned) [Compound 109] | 91
17 | C=CC(=O)N1[C@H](C)COC[C@H]1c1cc(Cl)cc(-c2ccnc(N)n2)c1 (single isomer, unassigned) [Compound 110] | 93
18 | C=CC(=O)N1CCOCC1c1cc(Cl)cc(-c2nccc3[nH]ccc23)c1 (single isomer, unassigned) [Compound 111, 1-(3-(3-chloro-5-(1H-pyrrolo[3,2-c]pyridin-4-yl)phenyl)morpholino)prop-2-en-1-one] | 90
19 | C=CC(=O)N1CCOCC1(C)c1cc(Cl)cc(-c2ncnc(N)n2)c1 (single isomer, unassigned) [Compound 112, 1-(3-(3-(4-amino-1,3,5-triazin-2-yl)-5-chlorophenyl)-3-methylmorpholino)prop-2-en-1-one] | 95
20 | C=CC(=O)N1CCOCC1(C)c1cc(Cl)cc(-c2ccnc(N)n2)c1 (single isomer, unassigned) [Compound 113, 1-(3-(3-(2-aminopyrimidin-4-yl)-5-chlorophenyl)-3-methylmorpholino)prop-2-en-1-one] | 94
21 | C=CC(=O)N1CCOCC1(C)c1cc(Cl)cc(-c2ccc(F)c(C(N)=O)c2)c1 (single isomer, unassigned) [Compound 114, 3′-(4-acryloyl-3-methylmorpholin-3-yl)-5′-chloro-4-fluoro-[1,1′-biphenyl]-3-carboxamide] | 87

Row | Compound | Emax [%]
22 | C=CC(=O)N1CCOC[C@H]1c1cc(Cl)cc(-c2cnn(C3CC3)c2)c1 (single isomer, unassigned) [Compound 115] | 74
23 | C=CC(=O)N1CCOC[C@H]1c1cc(Cl)cc(-c2cnn(C)c2)c1 (single isomer, unassigned) [Compound 116] | 84
24 | C=CC(=O)N1CCOC[C@H]1c1cc(Cl)cc(-c2cn[nH]c2)c1 (single isomer, unassigned) [Compound 117] | 84
25 | C=CC(=O)N1CCOC[C@H]1c1cc(Cl)cc(-n2cc(C)cn2)c1 (single isomer, unassigned) [Compound 118] | 63
26 | C=CC(=O)N1CCOCC1c1cc(Cl)nc(-c2cc(N)ncn2)c1 (single isomer, unassigned) [Compound 119, 1-(3-(2-(6-aminopyrimidin-4-yl)-6-chloropyridin-4-yl)morpholino)prop-2-en-1-one] | 96
27 | C=CC(=O)N1CC2(CC2)OCC1c1cc(Cl)cc(-c2cc(N)ncn2)c1 (single isomer, unassigned) [Compound 140, 1-(6-(3-(6-aminopyrimidin-4-yl)-5-chlorophenyl)-4-oxa-7-azaspiro[2.5]octan-7-yl)prop-2-en-1-one] | 72
28 | C=CC(=O)N1CCOC[C@H]1c1cc(Cl)cc(-c2cnnc(N)c2)c1 (single isomer, unassigned) [Compound 141] | 89
29 | C=CC(=O)N1[C@H](C)COC[C@H]1c1cc(Cl)nc(-c2ccnc(C)n2)c1 (single isomer, unassigned) [Compound 142] | 81
30 | C=CC(=O)N1CCOCC1c1cc(Cl)nc(-c2ncnc(N)n2)c1 (single isomer, unassigned) [Compound 146, 1-(3-(2-(4-amino-1,3,5-triazin-2-yl)-6-chloropyridin-4-yl)morpholino)prop-2-en-1-one] | 71
31 | C=CC(=O)N1CCOCC12COc1c(-c3ncnc(N)n3)cc(Cl)cc12 (single isomer, unassigned) [Compound 151, 1-(7-(4-amino-1,3,5-triazin-2-yl)-5-chloro-2H-spiro[benzofuran-33′-morpholino]-4′-yl)prop-2-en-1-one] | 81
32 | C=CC(=O)N1CC2(CC2)OCC1c1cc(Cl)cc(-c2ncnc(N)n2)c1 (single isomer, unassigned) [Compound 153, 1-(6-(3-(4-amino-1,3,5-triazin-2-y1)-5-chlorophenyl)-4-oxa-7-azaspiro[2.5]octan-7-yl)prop-2-en-1-one] | 94
33 | C=CC(=O)N1CC2(CC2)OCC1(C)c1cc(Cl)cc(-c2ncnc(N)n2)c1 (single isomer, unassigned) [Compound 160, 1-(6-(3-(4-amino-1,3,5-triazin-2-yl)-5-chlorophenyl)-6-methyl-4-oxa-7-azaspiro[2.5]octan-7-yl)prop-2-en-1-one] | 91
34 | C=CC(=O)N1[C@H](C(N)=O)COC[C@H]1c1cc(Cl)nc(-c2ccc(F)c(C(N)=O)c2)c1 (single isomer, unassigned) [Compound 181] | 66
35 | C=CC(=O)N1CCOC[C@H]1c1cc(Cl)cc(-c2c[nH]c(=O)[nH]2)c1 (single isomer, unassigned) [Compound 184] | 72
36 | C=CC(=O)N1CCN(C(=O)C2CC2)C[C@H]1c1cc(Cl)cc(-c2ccnc(N)n2)c1 (single isomer, unassigned) [Compound 185] | 94
37 | C=CC(=O)N1CCN(C(=O)CC#N)C[C@H]1c1cc(Cl)cc(-c2ccnc(N)n2)c1 (single isomer, unassigned) [Compound 186] | 83
38 | C=CC(=O)N1CCN(C(=O)CC#N)C[C@H]1c1cc(Cl)cc(-c2ccnc(NC(=O)CC#N)n2)c1 (single isomer, unassigned) [Compound 189] | 79
39 | C=CC(=O)N1[C@H](c2cc(Cl)nc(-c3ccn4ccnc4c3)c2)COC[C@H]1C(F)F (single isomer, unassigned) [Compound 194] | 84
40 | C=CC(=O)N1CCN(C(=O)C2CC2)C[C@H]1c1cc(Cl)cc(-c2ccc(F)c(C(N)=O)c2)c1 (single isomer, unassigned) [Compound 195] | 90
41 | C=CC(=O)N1CCN(C(=O)C2CC2)C[C@H]1c1cc(Cl)cc(-c2nccc(N)n2)c1 (single isomer, unassigned) [Compound 196] | 90
42 | C=CC(=O)N1CCN(C(=O)C2CC2)C[C@H]1c1cc(Cl)cc(-c2cc(N)ncn2)c1 (single isomer, unassigned) [Compound 197] | 87
